In PubChem BioAssay AID248 (DTP/NCI, 2004):
“And” between values parts separate entries of the source, which are not always exact repeats. Equal entries are not always repeated. Toxic doses and inconclusive results are not listed. No stated cut-off is given here; in the data, active means T/C of 150% or more; inactive means T/C below 125%.

Tested on: L1210 leukemia ip in BDF1 mice, survival T/C
Test: NCI In Vivo Anticancer Drug Screen. Data for tumor model L1210 Leukemia (intraperitoneal) in B6D2F1 (BDF1) mice
Conditions: endpoint: mean survival time, higher = longer survival
Summary of the method: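 Tumor was transplanted into mice, which were then dosed with test compound or vehicle alone. Survival was recorded for each group, and the treated figure was expressed relative to the control figure.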

[1] = dose: 100.0 mg/kg/injection, schedule: Q01DX001 (ip), vehicle: carboxymethylcellulose (CMC)
[2] = dose: 100.0 mg/kg/injection, schedule: Q04DX003 (ip), vehicle: Klucel (hydroxypropylcellulose) (HPC)
[3] = dose: 200.0 mg/kg/injection, schedule: Q01DX001 (ip), vehicle: carboxymethylcellulose (CMC)
[4] = dose: 200.0 mg/kg/injection, schedule: Q04DX003 (ip), vehicle: Klucel (hydroxypropylcellulose) (HPC)
[5] = dose: 400.0 mg/kg/injection, schedule: Q01DX001 (ip), vehicle: carboxymethylcellulose (CMC)
[6] = dose: 400.0 mg/kg/injection, schedule: Q04DX003 (ip), vehicle: Klucel (hydroxypropylcellulose) (HPC)
[7] = dose: 100.0 mg/kg/injection, schedule: Q01DX009 (ip), vehicle: Klucel (hydroxypropylcellulose) (HPC)
[8] = dose: 200.0 mg/kg/injection, schedule: Q01DX009 (ip), vehicle: Klucel (hydroxypropylcellulose) (HPC)
[9] = dose: 100.0 mg/kg/injection, schedule: Q01DX001 (ip), vehicle: saline
[10] = dose: 200.0 mg/kg/injection, schedule: Q01DX001 (ip), vehicle: saline

Measured: T/C

O=C1N(Br)C(=O)C(c2ccc(Cl)cc2)(c2ccc(Cl)cc2)N1Br
inactive: dose: 15.0 mg/kg/injection, schedule: Q01DX015 (ip), vehicle: carboxymethylcellulose (CMC) 89 % of control | dose: 30.0 mg/kg/injection, schedule: Q01DX015 (ip), vehicle: carboxymethylcellulose (CMC) 93 % of control | dose: 60.0 mg/kg/injection, schedule: Q01DX015 (ip), vehicle: carboxymethylcellulose (CMC) 88 % of control | [1] 95 % of control | dose: 100.0 mg/kg/injection, schedule: Q01DX009 (ip), vehicle: saline sonified 113 % of control | [2] 99 % of control | dose: 120.0 mg/kg/injection, schedule: Q01DX015 (ip), vehicle: carboxymethylcellulose (CMC) 93 % of control | [3] 90 % of control | dose: 200.0 mg/kg/injection, schedule: Q01DX009 (ip), vehicle: saline sonified 106 % of control | [4] 94 % of control | dose: 240.0 mg/kg/injection, schedule: Q01DX015 (ip), vehicle: carboxymethylcellulose (CMC) 95 % of control | dose: 360.0 mg/kg/injection, schedule: Q01DX015 (ip), vehicle: carboxymethylcellulose (CMC) 98 % of control | [5] 104 % of control | dose: 400.0 mg/kg/injection, schedule: Q01DX009 (ip), vehicle: saline sonified 99 % of control | [6] 100 % of control

CC1(C)OC2C(=O)C3COC(O3)C2O1 (stereo unspecified)
inactive: [1] 106 % of control | [3] 106 % of control | [5] 103 % of control

O=S(=O)(Nc1c(Cl)c(Cl)c(NS(=O)(=O)c2ccccc2)c(Cl)c1Cl)c1ccccc1
inactive: [7] 103 % of control | [8] 111 % of control | dose: 400.0 mg/kg/injection, schedule: Q01DX009 (ip), vehicle: Klucel (hydroxypropylcellulose) (HPC) 103 % of control

CCC1=C(C)CN(C)c2ccccc21
inactive: [9] 100 % of control | [10] 100 % of control | dose: 400.0 mg/kg/injection, schedule: Q01DX001 (ip), vehicle: saline 94 % of control

Cc1cc(N(CCCl)CCCl)ccc1CN1CCCN(Cc2ccc(N(CCCl)CCCl)cc2C)C1c1ccccc1O
inactive: dose: 50.0 mg/kg/injection, schedule: Q01DX001 (ip), vehicle: carboxymethylcellulose (CMC) 106 % of control | [1] 103 % of control | [2] 117 % of control | [3] 103 % of control | [4] 110 % of control | [5] 103 % of control | [6] 122 % of control

CCN(CC)CCCNc1nc(C(Cl)(Cl)Cl)nc2ccc(I)cc12
inactive: [7] 96 % of control | [8] 100 % of control

COC(=O)C(=O)CC(=O)c1cccc(OC)c1
inactive: dose: 25.0 mg/kg/injection, schedule: Q04DX002 (ip), vehicle: Klucel (hydroxypropylcellulose) (HPC) 93 % of control | dose: 50.0 mg/kg/injection, schedule: Q04DX002 (ip), vehicle: Klucel (hydroxypropylcellulose) (HPC) 100 % of control | dose: 100.0 mg/kg/injection, schedule: Q04DX002 (ip), vehicle: Klucel (hydroxypropylcellulose) (HPC) 107 % of control and 123 % of control | dose: 200.0 mg/kg/injection, schedule: Q04DX002 (ip), vehicle: Klucel (hydroxypropylcellulose) (HPC) 93 % of control and 100 % of control | dose: 400.0 mg/kg/injection, schedule: Q04DX002 (ip), vehicle: Klucel (hydroxypropylcellulose) (HPC) 103 % of control

C(CC1CO1)C1CO1 (stereo unspecified)
active: dose: 7.0 mg/kg/injection, schedule: Q01DX009 (ip), vehicle: acetone 197 % of control | dose: 14.0 mg/kg/injection, schedule: Q01DX009 (ip), vehicle: acetone 152 % of control | dose: 37.5 mg/kg/injection, schedule: Q01DX009 (ip), vehicle: saline 150 % of control | dose: 66.0 mg/kg/injection, schedule: Q01DX009 (ip), vehicle: acetone 168 % of control | dose: 75.0 mg/kg/injection, schedule: Q01DX009 (ip), vehicle: saline 175 % of control | dose: 81.0 mg/kg/injection, schedule: Q04DX003 (ip), vehicle: acetone 154 % of control | dose: 100.0 mg/kg/injection, schedule: Q01DX009 (ip), vehicle: acetone 224 % of control | dose: 100.0 mg/kg/injection, schedule: Q04DX003 (ip), vehicle: acetone 161 % of control
inactive: dose: 9.0 mg/kg/injection, schedule: Q01DX Z (ip), vehicle: methylcellulose (MC) 118 % of control | dose: 9.2 mg/kg/injection, schedule: Q01DX009 (ip), vehicle: saline 102 % of control and 115 % of control | dose: 10.6 mg/kg/injection, schedule: Q01DX001 (ip), vehicle: acetone 102 % of control | dose: 10.6 mg/kg/injection, schedule: Q01DX009 (ip), vehicle: acetone 115 % of control | dose: 10.6 mg/kg/injection, schedule: Q04DX003 (ip), vehicle: acetone 112 % of control | dose: 10.6 mg/kg/injection, schedule: Q08DX002 (ip), vehicle: acetone 102 % of control | dose: 14.0 mg/kg/injection, schedule: Q01DX009 (ip), vehicle: saline 102 % of control and 105 % of control | dose: 16.0 mg/kg/injection, schedule: Q01DX009 (ip), vehicle: acetone 115 % of control | dose: 16.0 mg/kg/injection, schedule: Q04DX003 (ip), vehicle: acetone 115 % of control | dose: 16.0 mg/kg/injection, schedule: Q08DX002 (ip), vehicle: acetone 112 % of control | dose: 18.0 mg/kg/injection, schedule: Q01DX Z (ip), vehicle: methylcellulose (MC) 122 % of control and 124 % of control | dose: 18.8 mg/kg/injection, schedule: Q01DX009 (ip), vehicle: saline 107 % of control | dose: 21.0 mg/kg/injection, schedule: Q01DX009 (ip), vehicle: saline 109 % of control and 116 % of control | dose: 22.0 mg/kg/injection, schedule: Q01DX001 (ip), vehicle: saline 109 % of control | dose: 24.0 mg/kg/injection, schedule: Q01DX001 (ip), vehicle: acetone 103 % of control | dose: 24.0 mg/kg/injection, schedule: Q04DX003 (ip), vehicle: acetone 124 % of control | dose: 24.0 mg/kg/injection, schedule: Q08DX002 (ip), vehicle: acetone 105 % of control | dose: 27.0 mg/kg/injection, schedule: Q01DX Z (ip), vehicle: methylcellulose (MC) 110 % of control and 116 % of control | dose: 33.0 mg/kg/injection, schedule: Q01DX001 (ip), vehicle: saline 107 % of control | dose: 36.0 mg/kg/injection, schedule: Q01DX001 (ip), vehicle: acetone 110 % of control | dose: 36.0 mg/kg/injection, schedule: Q04DX003 (ip), vehicle: acetone 124 % of control | dose: 36.0 mg/kg/injection, schedule: Q08DX002 (ip), vehicle: acetone 117 % of control | dose: 37.5 mg/kg/injection, schedule: Q04DX003 (ip), vehicle: saline sonified 113 % of control | dose: 40.0 mg/kg/injection, schedule: Q01DX Z (ip), vehicle: methylcellulose (MC) 108 % of control and 116 % of control | dose: 50.0 mg/kg/injection, schedule: Q01DX001 (ip), vehicle: saline 117 % of control | dose: 54.0 mg/kg/injection, schedule: Q01DX001 (ip), vehicle: acetone 121 % of control | dose: 54.0 mg/kg/injection, schedule: Q08DX002 (ip), vehicle: acetone 113 % of control | dose: 60.0 mg/kg/injection, schedule: Q01DX Z (ip), vehicle: methylcellulose (MC) 86 % of control | dose: 66.0 mg/kg/injection, schedule: Q04DX003 (ip), vehicle: saline 117 % of control | dose: 75.0 mg/kg/injection, schedule: Q04DX003 (ip), vehicle: saline sonified 119 % of control | dose: 81.0 mg/kg/injection, schedule: Q01DX001 (ip), vehicle: acetone 118 % of control | dose: 81.0 mg/kg/injection, schedule: Q08DX002 (ip), vehicle: acetone 123 % of control | [9] 118 % of control | dose: 150.0 mg/kg/injection, schedule: Q04DX003 (ip), vehicle: saline 101 % of control | [10] 121 % of control
